Assay results as given in PMC8584173, “The Cytotoxic Effect of Copper (II) Complexes with Halogenated 1,3-Disubstituted Arylthioureas on Cancer and Bacterial Cells” (International Journal of Molecular Sciences, 2021).

Assays:
[1] = tested on: SW480 cells; experiment: LDH release assay, SW480; format: cell-based, human; conditions: 72 h
Description: (§1) The presence of lactate dehydrogenase (LDH) in culture medium indicates a disturbance of the integrity of the cellular membrane. The LDH activity was performed after 72 h incubation of cells (1 × 10^4 cells per well) in 96-well plates with selected compounds according to manufacturer’s protocol (Roche Diagnostics, Germany), as was described by Chrzanowska et al.. Compound mediated cytotoxicity was determined using equation: ((A test sample−A low control)/ (A high control−A low control)) × 100% (A-absorbance), where “low control” means cells in medium with 2% FBS without tested compounds, and “high control” means cells incubated in medium with 2% FBS and 1% Triton X-100 (100% LDH release). The cytotoxicity was expressed as percentage of LDH release as compared with the maximum release of LDH from Triton-X-100-treated cells.

[2] = tested on: PC3 cells; experiment: LDH release assay, PC3; format: cell-based, human; conditions: 72 h
Description: as §1

Compound: O=[N+]([O-])c1cc([N+]2=C(Nc3ccc(I)cc3)[S][Cu-2]23[S]C(Nc2ccc(I)cc2)=[N+]3c2ccc(Cl)c([N+](=O)[O-])c2)ccc1Cl [Compound 8, Copper (II) complex with 1-(4-iodophenyl)-3-(4-chloro-3-nitrophenyl)thiourea]
- LDH release ([1]; SW480, 20 μM): 42%
- LDH release ([1]; SW480, 40 μM): 46.4%
- LDH release ([1]; SW480, 60 μM): 58%
- LDH release ([2]; PC3, 10 μM): 27.2%
- LDH release ([2]; PC3, 40 μM): 56.4%
- LDH release ([2]; PC3, 60 μM): 64%
